The results in this text go back to ChEMBL document CHEMBL5236621, “Synthesis and biological evaluation of N-(benzene sulfonyl)acetamide derivatives as anti-inflammatory and analgesic agents with COX-2/5-LOX/TRPV1 multifunctional inhibitory activity” (Bioorg Med Chem Lett, 2023).

The target of data set [1] is Prostaglandin G/H synthase 2.
The target in data set [2] is Transient receptor potential cation channel subfamily V member 1 (Homo sapiens, UniProt Q8NER1). The data set can be described thus: Inhibition of TRPV1 (unknown origin).
In data set [3] the target is T1, Polyunsaturated fatty acid 5-lipoxygenase (Homo sapiens, UniProt P09917).
T1 sequence (P09917 whole entry): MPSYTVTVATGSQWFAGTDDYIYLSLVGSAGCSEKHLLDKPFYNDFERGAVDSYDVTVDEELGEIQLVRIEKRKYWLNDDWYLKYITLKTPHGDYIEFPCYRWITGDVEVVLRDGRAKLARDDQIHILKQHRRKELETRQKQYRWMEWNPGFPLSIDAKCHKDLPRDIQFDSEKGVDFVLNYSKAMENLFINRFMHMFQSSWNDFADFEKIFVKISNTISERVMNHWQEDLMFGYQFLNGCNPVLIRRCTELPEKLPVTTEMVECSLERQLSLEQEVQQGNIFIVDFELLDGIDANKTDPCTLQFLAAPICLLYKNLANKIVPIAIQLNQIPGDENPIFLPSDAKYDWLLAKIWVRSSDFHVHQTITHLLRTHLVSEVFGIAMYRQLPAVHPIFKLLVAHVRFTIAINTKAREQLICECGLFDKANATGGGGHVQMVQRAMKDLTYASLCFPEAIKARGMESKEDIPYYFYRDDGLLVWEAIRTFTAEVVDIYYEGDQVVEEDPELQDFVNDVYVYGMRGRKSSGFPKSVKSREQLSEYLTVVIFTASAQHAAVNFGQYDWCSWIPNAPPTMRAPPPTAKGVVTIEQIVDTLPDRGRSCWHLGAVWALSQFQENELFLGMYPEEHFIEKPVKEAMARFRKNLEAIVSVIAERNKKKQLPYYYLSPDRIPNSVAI
The data set can be described thus: Inhibition of 5-LOX (unknown origin).

A short description of data set [4]: Tmax in Sprague-Dawley rat at 10 mg/kg, IG. It is filed as ADME, organism-based. The settings on record: in vivo, po.
Data set [5] is described as follows: Bioavailability in Sprague-Dawley rat at 1 mg/kg, iv. Format: ADME, organism-based. The settings on record: in vivo.
Data set [6] is described as follows: Cmax in Sprague-Dawley rat at 10 mg/kg, IG. It is filed as ADME, organism-based. More on the design: dose 10 mg/kg, route ig. To be noted: in vivo, po.
The species named for data set [7] is Mus musculus. The data set can be described thus: Analgesic activity in formalin-induced mouse pain model assessed as reduction in immediate response by measuring licking time. Format: functional.
A short description of data set [8]: Apparent clearance in Sprague-Dawley rat at 1 mg/kg, iv. Format: ADME, organism-based. The settings on record: in vivo.
The species named for data set [9] is Mus musculus. The data set can be described thus: Analgesic activity in formalin-induced mouse pain model assessed as time consumed for nociceptive behavior by measuring licking time. Format: functional.
For data set [10], the system named is Mus musculus. The data set can be described thus: Antiinflammatory activity against capsaicin-induced mouse ear edema model assessed as decrease in ear thickness at 20 mg/kg relative to control. Format: functional.

Where only a bound is given, the exact number is not on record here.

Transient receptor potential cation channel subfamily V member 1, sequence (Q8NER1 whole entry): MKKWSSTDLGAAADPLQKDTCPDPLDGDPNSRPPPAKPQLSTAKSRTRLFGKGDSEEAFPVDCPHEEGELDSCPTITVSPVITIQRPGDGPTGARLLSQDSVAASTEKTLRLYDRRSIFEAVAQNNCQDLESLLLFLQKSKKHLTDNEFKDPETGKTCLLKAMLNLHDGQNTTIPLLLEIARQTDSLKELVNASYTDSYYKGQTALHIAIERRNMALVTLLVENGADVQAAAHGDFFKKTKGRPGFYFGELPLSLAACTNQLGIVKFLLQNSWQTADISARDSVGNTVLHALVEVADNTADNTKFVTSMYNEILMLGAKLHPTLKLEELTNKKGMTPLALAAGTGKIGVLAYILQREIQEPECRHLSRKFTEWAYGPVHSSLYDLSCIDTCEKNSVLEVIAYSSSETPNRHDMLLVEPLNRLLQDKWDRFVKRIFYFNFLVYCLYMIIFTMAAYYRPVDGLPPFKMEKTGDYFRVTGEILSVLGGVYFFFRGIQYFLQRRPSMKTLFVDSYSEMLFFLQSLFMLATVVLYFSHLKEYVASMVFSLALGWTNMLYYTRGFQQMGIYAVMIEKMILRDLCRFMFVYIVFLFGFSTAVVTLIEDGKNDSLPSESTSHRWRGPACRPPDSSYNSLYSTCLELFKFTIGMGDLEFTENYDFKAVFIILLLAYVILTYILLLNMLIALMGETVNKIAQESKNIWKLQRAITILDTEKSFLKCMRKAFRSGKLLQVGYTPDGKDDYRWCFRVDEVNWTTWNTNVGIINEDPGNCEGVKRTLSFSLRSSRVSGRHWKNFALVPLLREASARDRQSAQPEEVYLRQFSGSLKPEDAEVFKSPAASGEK

For the compound `Cc1ccc(-c2cc(C(F)(F)F)nn2-c2ccc(S(=O)(=O)NC(=O)CCCCC3CCSS3)cc2)cc1` (stereo unspecified), the results for the IC50 in [1], in [2] and in data set [3] were 370 nM, above 10000 nM and 1420 nM, respectively.
Taken in the same sequence, the figures for `Cc1ccc(-c2cc(C(F)(F)F)nn2-c2ccc(S(=O)(=O)NC(=O)C(C)c3ccc(CC(C)C)cc3)cc2)cc1` (stereo unspecified) were 25 nM, 1030 nM and 520 nM.
Turning to `Cc1ccc(-c2cc(C(F)(F)F)nn2-c2ccc(S(=O)(=O)NC(=O)c3ccccc3)cc2)cc1`, the IC50 was determined as 76 nM in data set [1] and 120 nM in data set [3].
Regarding `COc1cc(C(=O)[N-]S(=O)(=O)c2ccc(-n3nc(C(F)(F)F)cc3-c3ccc(C)cc3)cc2)ccc1[O-].[Na+].[Na+]`, the Tmax in data set [4] turned out to be 4.5 h. In addition, the bioavailability in [5] was found to be 96.8%. This compound showed a Cmax in data set [6] of 5810 ng/mL. Further, the Time in the data set filed under Mus musculus [7] turned out to be 0 min; in the data set filed under Mus musculus [9], 85.5 s. Also, the clearance in data set [8] was 3.24 mL/min/kg. Further, the figures for the IC50 in [1] and in data set [3] were 11 nM and 460 nM, respectively.
Consider `COc1cc(/C=C/C(=O)[N-]S(=O)(=O)c2ccc(-n3nc(C(F)(F)F)cc3-c3ccc(C)cc3)cc2)ccc1[O-].[Na+].[Na+]`, for which the bioavailability in data set [5] is 13.3%. For the same compound, the clearance in [8] was determined as 8.64 mL/min/kg. Moreover, the results for the IC50 in [1], in data set [2] and in [3] were 23 nM, 140 nM and 310 nM, respectively.
`CCOC(=O)NS(=O)(=O)c1ccc(-n2nc(C(F)(F)F)cc2-c2ccc(C)cc2)cc1`: the IC50 in data set [1] amounted to 35 nM; in data set [3], 920 nM.
As to `Cc1ccc(-c2cc(C(F)(F)F)nn2-c2ccc(S(N)(=O)=O)cc2)cc1` [CELECOXIB], the inhibition in vivo at 20 mg/kg with Mus musculus [10] was found to be 48.8%. Also, the IC50 in data set [2] and in data set [3] was above 10000 nM in each case.
